Data: patent US20120315345A1, “FUNCTIONAL FOOD AND PHARMACEUTICAL COMPOSITIONS FOR ANTI-OBESITY COMPRISING CAPSANTHIN AND FATTY-ACYL ESTER OF CAPSANTHIN HAVING ANTI-ADIPOGENIC ACTIVITY” (ESBIOTECH CO., LTD., priority 2011, published 2012)
Where two headings read alike, the source gives them in different places.

Key:
3T3-L1 cells = assay: Inhibition test on adipocyte differentiation (counting of Oil Red O stained cells); format: cell-based, mouse; conditions: 3 days in differentiation medium, microscopical counting of Oil Red O stained cells
Protocol: (§1) 3T3-L1 mouse embryonic fibroblast was cultured according to Singh's method (Singh R, Testosterone inhibits adipogenic differentiation in 3T3-L1 cells: Nuclear translocation of androgen receptor complex with β-catenin and T-cell factor 4 may bypass canonical WNT signaling to down-regulate adipogenic transcription factors, Endocrinology, 2006, 147, 141 to 154).
(§2) 3T3-L1 cells supplied by Korean cell line bank were cultured on a Dulbecco's modified Eagle's medium (DMEM) medium that includes 10% bovine calf serum and 1% penicillin-streptomycin mixture. When they reached confluence, culturing was continued for further 2 to 3 days. Thereafter, the medium was replaced by a fresh DMEM medium containing 10% fetal bovine serum, 1.7 μM insulin, 0.5 mM 3-isobutyl-1-methylxanthine (IBMX) and 1 μM dexamethasone and culturing was continued for 8 days. For the evaluation of inhibitory activities of capsanthin on adipocyte differentiation and on triglycerides accumulation in adipocyte, a positive control experiments were conducted on capsaicin (sigma) and/or genistein (sigma).
Mouse embryonic 3T3-L1 cells were plated in 12-well culture plate with DMEM containing 10% BCS (Bovine calf serum) and cultured for the proliferation of cells under 5% CO2 atmosphere at 37° C. until confluent phase is appeared. Continued culture for additional 2 days will ensure the clonal expansion. Culture media is replaced with differentiation medium consisting of DMEM, 10% FBS, 1.7 uM insulin, 0.5 mM IBMX, 1 uM dexamethasone and varying amount of capsanthin in DMSO (final concentration of DMSO in the differentiation media were kept under 0.1%) and cultured additional 3 days for the induction of cell differentiation Culture media was removed and washed with PBS and the cells were fixed on the well surface by incubation with 10% formaldehyde for one hour and then washed with PBS. The differentiate cells were stained with Oil Red O solution for 2 hours. The number of adipocyte stained red was counted with microscopical observation.

[1] = set-up: species or system Sprague-Dawley albino rats; conditions: rat, in vivo
Protocol: Male Sprague-Dawley albino rats were used for the analysis of gastro-intestinal absorption of capsanthins. Animals were accommodated in a constant humidity of 50 (±5) % and constant temperature of 25 (±1)° C. under shading control of light and dark with 12 hours intervals. Feeds and water supplies were provided at libidium.
Free-form capsanthin (15 mg/kg body wt) in soy-bean oil was orally administered to group-1 animals and then 4 ml time-course blood samples were collected from the animals to EDTA tubes and centrifuged (3,000 rpm, 10 min) to obtain 1 ml plasma samples. To the plasma samples 1 ml of 1%-BHT in ethanol and 2 ml hexane were mixed, shaked vigorously and centrifuged for 5 minutes at 2,000 rpm to obtain hexane layer for the HPLC-analysis under the HPLC-condition appears in Example 10. (M. A. Grashom, Quantification of carotenoids in chicken plasma after feeding free of esterified lutein and capsanthin using high-performance liquid chromatography and liquid chromatography-mass spectrometry analysis, Poultry science, 2003, 82, 395-401, Hideo E, Carotenoids in human blood plasma after ingesting paprika juice)
Fatty-acyl ester of capsanthin was orally administered to group-2 animals equimolar dosage bases with that of free-form capsanthin. The time course collection of blood and further treatments were conducted as same way with that of group-1 experiments [Ref. to 0086]

3T3-L1 cell = assay: Inhibitory activity on triglycerides accumulation in adipocyte (Oil Red O staining); format: cell-based, mouse; conditions: read-out: IC50-value on triglycerides accumulation in adipocyte
Protocol: as §1, §2
Negal's Oil red O staining procedure (Negrel R, Culture of adipose precursor cell and cells of clonal lines from animal white adipose tissue, in adipose tissue protocols. G. Ailhaud (ed). Humana press, inc., Totowa, N.J., 2001, 225-237) was adopted to assay the quantities of triglyceides accumulated in adipocytes. The pre-adipocytes (3T3-L1 cell) were cultured in 12-well culture plate for additional two days to induce clonal expansion after the confluent phase. The culture media was replaced with differentiation media which is containing various concentration of capsanthin solution in DMSO (final concentration of DMSO in the differentiation media were kept under 0.1%) and cultured for additional 8 days to induce lipid accumulation. The culture media was removed by aspiration and washed with PBS. The cells were fixed on the surface of culture well by incubation for one hour with 500 ul of 10% formaldehyde solution. After removal of formaldehyde the cells were washed with PBS and then stained by incubation with Oil Red O for 2 hours. After two removal of Oil Red O solution by aspiration the cells were washed with PBS and then Oil Red O in adipocyte was extracted by incubation 10 minutes with 1 ml isopropyl-alcohol. Oil Red O contents in isopropyl-alcohol were assayed by 510 nm absorption on ELISA reader.

[2] = Stability during fermentation of kochujang; format: physicochemical
Excerpt: Capsanthin is contained in the natural products such as red peppers as the chemically stable esterified-form. Therefore, even when red peppers or the likes are included in fermented foods as the Korean traditional foods like “kimchi” or “kochujang” (also referred to as “gochujang”), original anti-adipogenic activities thereof are retained. On the other hand, it was found in our laboratory that about 35% or more of anti-adipogenic capsaicin component was destroyed during 6 month-long fermentation.
Red pepper is a traditional spicy vegetable food and more than 90% of total consumption in Korea is used to prepare traditional fermented food such as “kimchi” and “kochujang” in Korea. […] Based on this observation, present inventors are claiming that the anti-adipogenic activity of “kochujang” is due more to capsanthin components rather than to the capsaicin or capsaicin metabolite.

[3] = 3T3-L1 cells, 8 days in differentiation media, Oil Red O

Molecular species found in the blood by HPLC after oral administration [1]	Compound	IC50 (3T3-L1 cells) [µM]	IC50 (3T3-L1 cell; [3]) [µM]	Chemical alteration during fermentation of kochujang [2]	IC50 (3T3-L1 cells; Mus musculus, 72 h) [µM]	Component destroyed during fermentation ([2]; 6 month-long fermentation) [%]	IC50 (3T3-L1 cell; Mus musculus, 3T3-L1, 192 h) [µM]	IC50 (3T3-L1 cell; Mus musculus, 192 h, 3T3-L1 cells, 8 days in differentiation media, Oil Red O) [µM]
appeared in the blood	CC1=C(/C=C/C(C)=C/C=C/C(C)=C/C=C/C=C(C)/C=C/C=C(C)/C=C/C(=O)[C@]2(C)C[C@@H](O)CC2(C)C)C(C)(C)C[C@H](O)C1 [free-form capsanthin, capsanthin]	4.49	1.31	–	–	–	–	–
not detected	fatty-acyl ester of capsanthin [esterified-form capsanthin]	75.4	55.2	remained without any chemical alteration	–	–	–	–
–	COc1cc(CNC(=O)CCCC/C=C/C(C)C)ccc1O [capsaicin]	–	–	significant decomposition	3.39	≥ 35	32.6	–
–	O=c1c(-c2ccc(O)cc2)coc2cc(O)cc(O)c12 [genistein]	–	–	–	28.1	–	–	58.7
–	fucoxanthin	79.1	54.8	–	–	–	–	–
